Data on 1 molecule can be found in PMC11530593, “Structural mechanism of human HCN1 hyperpolarization-activated channel inhibition by ivabradine” (The Journal of Biological Chemistry, 2024).

Positions count from the first letter of the chain named.

A word on the IC50: it is the concentration that inhibits the measured activity by half.

In one test the target is T1, HCN1 mutant D140A (Homo sapiens, UniProt O60741, D140A).
T1 construct: Full-length WT or mutant human HCN1 were cloned into the pcDNA3.1 vector; expressed in transfected cells; host or cells: HeLa cells, pcDNA3.1 vector, transient lipofection
T1 sequence (O60741 1-890 D140A): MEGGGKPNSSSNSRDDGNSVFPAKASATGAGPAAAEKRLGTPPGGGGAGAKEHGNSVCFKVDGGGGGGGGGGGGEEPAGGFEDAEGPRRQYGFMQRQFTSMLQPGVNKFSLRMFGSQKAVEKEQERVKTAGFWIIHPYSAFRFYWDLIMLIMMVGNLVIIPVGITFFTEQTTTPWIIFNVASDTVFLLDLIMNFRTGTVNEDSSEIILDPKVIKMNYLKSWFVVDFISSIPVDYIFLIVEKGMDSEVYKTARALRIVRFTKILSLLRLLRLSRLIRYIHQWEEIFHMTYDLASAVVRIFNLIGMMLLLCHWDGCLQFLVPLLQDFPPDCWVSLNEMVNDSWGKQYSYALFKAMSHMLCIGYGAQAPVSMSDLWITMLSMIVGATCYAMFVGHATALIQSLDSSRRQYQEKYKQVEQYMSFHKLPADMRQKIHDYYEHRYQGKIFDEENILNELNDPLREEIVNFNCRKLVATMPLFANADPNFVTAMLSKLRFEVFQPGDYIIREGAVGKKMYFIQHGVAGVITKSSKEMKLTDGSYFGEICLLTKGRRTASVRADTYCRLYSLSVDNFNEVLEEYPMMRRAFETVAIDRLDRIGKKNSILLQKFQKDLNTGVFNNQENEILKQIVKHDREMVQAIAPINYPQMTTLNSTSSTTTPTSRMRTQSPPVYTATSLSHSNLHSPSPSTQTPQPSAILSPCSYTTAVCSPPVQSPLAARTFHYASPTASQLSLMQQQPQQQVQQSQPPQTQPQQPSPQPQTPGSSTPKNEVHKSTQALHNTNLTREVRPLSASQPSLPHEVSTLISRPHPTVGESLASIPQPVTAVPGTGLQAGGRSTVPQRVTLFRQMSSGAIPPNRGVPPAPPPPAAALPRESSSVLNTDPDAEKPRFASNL
Briefly: Whole-cell patch-clamp, Ih inhibition, HCN1 mutant. The test is classed as cell-based. The method, then: (§1) To elucidate the contribution of these residues to the inhibitory effect of ivabradine, we introduced mutations in ivabradine-interacting residues, converting them into alanines (Fig. 2F).
(§2) Full-length WT or mutant human HCN1 were cloned into the pcDNA3.1 vector for electrophysiological experiments. HeLa cells (from Thermo Fisher Scientific) cultured in Dulbecco's modified Eagle's medium (from Solarbio Life Science) + 10% fetal bovine serum (from ExCell Bio) at 37 °C were transiently transfected using lipofection, and whole-cell patch-clamp recordings were obtained using the Axon 200B amplifier (Molecular Devices) and clampex software (https://www.moleculardevices.com/products/axon-patch-clamp-system/acquisition-and-analysis-software/pclamp-software-suite), 36 to 48 h posttransfection. The extracellular solution contained 110 mM NaCl, 0.5 mM MgCl2, 1.8 mM CaCl2, 5 mM Hepes, 30 mM KCl, and pH was adjusted to 7.4 with NaOH, while the pipette solution contained 130 mM KCl, 10 mM NaCl, 0.5 mM MgCl2, 1 mM EGTA, 5 mM Hepes, and pH was adjusted to 7.4 with KOH. The recordings were performed at room temperature, voltage-clamp mode, and filtered at 1 kHz. The sampling frequency was 10 kHz, and the series resistance was limited to 5 MΩ. To elicit channel currents, step pulses of 3 s duration ranging from −180 mV to −30 mV were applied, followed by a step to −180 mV lasting 1.25 s. The tail currents evoked by the second step were used to determine the voltage-dependent activation curves and calculate the midpoint of activation potential (V1/2). The half maximal inhibitory concentration (IC50) of drugs was determined by recording currents at a pulse of −140 mV and analyzing current amplitudes at varying drug concentrations. The IC50 value was calculated using the Hill equation.
For orientation: The patch-clamp technique gives a direct electrical read-out from membranes.

A further test addresses T2, HCN1 mutant F285A (Homo sapiens, UniProt O60741, F285A).
T2 construct: Full-length WT or mutant human HCN1 were cloned into the pcDNA3.1 vector; expressed in transfected cells; host or cells: HeLa cells, pcDNA3.1 vector, transient lipofection
T2 sequence (O60741 1-890 F285A): T1 sequence (O60741 1-890 D140A) with A140D, F285A
Briefly: Whole-cell patch-clamp, Ih inhibition, HCN1 mutant. The test is classed as cell-based. To be noted: electrophysiological recordings, read-out: IC50 (Fig. 2F). On the procedure:
as §1, §2

Consider `COc1cc2c(cc1OC)CC(=O)N(CCCN(C)C[C@H]1Cc3cc(OC)c(OC)cc31)CC2` [ivabradine], for which the IC50 was determined as 27.6 µM at HCN1 mutant D140A (D140A mutant, electrophysiological recordings, read-out: IC50 (Fig. 2F)) and 13.4 µM on HCN1 mutant F285A. The “change in potency by mutation” value on HCN1 mutant D140A (D140A versus WT) is “dramatic decrease”.
